Experimental data reported in patent US10688099B2, “Methods for modulating the amount of RNA transcripts” (PTC Therapeutics, Inc., priority 2013, dated 2020).

Test system: RNA isoforms in PNN 1-46 SMA type I patient-derived fibroblasts
Assay: RNA Abundance Modulation (RNA isoform abundance, iFPM, HiSeq RNA sequencing)
Assay type: cell-based, human
Details: 3 μM
Procedure: Cells from a cell line of interest are cultured in conditions sufficient to yield the number of cells capable of generating enough RNA for subsequent sequencing steps. Cells from the tested cell line are contacted with a compound described herein.
To culture said cells, they are seeded, at appropriate concentrations in a volume of media in a cell culture container and incubated for 4, 5, 6, 7, 8, 9, 10, or more hours. A concentrated solution of compound in a vehicle (e.g., DMSO) is then added in sufficient volume to result in the intended final concentration of the compound, for example 100 nM, 500 nM, 1 μM, 5 μM, 10 μM, 15 μM, 20 μM, or more. The cells may also be treated with vehicle alone, as a control. A number of replicates of each concentration or control may be made (e.g., 2 replicates). The cells are then incubated at a constant temperature appropriate for cell culture of the particular cell line (e.g., 37° C.) for 6, 12, 18, 24, 48, or more hours. After incubation, the growth medium is removed and the cells are washed with the appropriate buffer (e.g., PBS). Cells are then removed from adherence to the cell culture container by treatment with a solution containing trypsin, and the trypsin subsequently quenched with the appropriate volume of buffer (e.g., DMEM-FBS). The cells are then pelleted with gentle centrifugation (e.g., ≤90×g centrifugal force) and resuspended in a buffer to lyse the cells for extraction of RNA. The cell lysates may then be frozen (e.g., at −80° C.) or, alternately, may immediately be used in a procedure to purify the RNA (e.g. by use of the RNEASY PLUS® minikit). The RNA from cell lysates is eluted in the appropriate volume of buffer (e.g., RNEASE-FREE H2O®). The resulting purified RNA may then be sequenced (e.g., using RNASeq) or analyzed using a human exon array (e.g., by GENECHIP® human exon array) to determine changes in the RNA levels in those cells treated with compound compared to those cells treated only with DMSO. The purified RNA may also be quantified by other methods known in the art.
Using the RNA data obtained from sequencing, exon array, or other methods, a statistical analysis can reveal changes in the RNA levels of compound-treated compared with control. For example, t-test p-values may be calculated for the data obtained through sequencing and exon array methods in order to compare compound-treated cells to those treated with the DMSO control. […] Analysis of the sequencing and exon array data may then also yield predictions about the cause of the aberrant amount of an RNA transcript in the cells (e.g., perturbation of RNA splicing, RNA transcription, or RNA stability). These predictions may be further confirmed by methods known in the art. For example, RT-PCR and RT-qPCR may be used to confirm the change in amount of RNA transcripts for one or more particular transcripts of interest.
Following the methods described above in Example 1, PNN 1-46 SMA type I patient-derived fibroblasts were treated with 300 nM or 3 μM Compounds 774 and 808 in 0.5% DMSO.
700,000 cells were seeded in 10 mL of medium (DMEM plus 10% FBS) in a T-75 flask. Cells were allowed to attach for at least 4 hrs, after which 50 μL of a 200× compound solution (100% DMSO) was added to each well, and the plate was incubated at 37° C. for 24 hrs.
At the end of the incubation period, the supernatant was removed and the cells where washed with PBS. TrypLE (Invitrogen) express solution was added (e.g. 1.5 mL per one T75 flask). The flasks were incubated for 3 to 5 min at 37° C. The trypsin was then quenched, e.g., by adding 10 mL DMEM-FBS.
Next, the cells were pelleted using gentle centrifugation without exceeding 90×g centrifugal force. The supernatant was removed and the cell pellet was re-suspended in 600 μL RLT buffer (the RLT buffer was supplemented with beta-mercaptoethanol according to the RNeasy protocol manual) by pipetting up and down until the pellet was completely dissolved […]

## CCc1nc(C)cn2nc(-c3cc(=O)n4cc(C5CCN(C)CC5)cc(C)c4n3)cc12 [Compound 774]
TOMM5 CR627326
  amp FC (x + 1): 2.36
  ave Cpd: 4 iFPM
TOMM5 NM_001001790
  FC (x + 1): 0.3953
  L2FC (x + 1): −1.339
  L2abs (Cpd-DMSO): 10.21
  abs (Cpd-DMSO): 1185 iFPM
  amp FC (x + 1): 2.53
  ave Cpd: 774 iFPM
TOMM5 NM_001134484
  FC (x + 1): 0.2630
  L2FC (x + 1): −1.927
  L2abs (Cpd-DMSO): 3.41
  abs (Cpd-DMSO): 11 iFPM
  amp FC (x + 1): 3.80
  ave Cpd: 3 iFPM
TOMM5 NM_001134485
  FC (x + 1): 0.4705
  L2FC (x + 1): −1.088
  L2abs (Cpd-DMSO): 4.88
  abs (Cpd-DMSO): 29 iFPM
  amp FC (x + 1): 2.13
  ave Cpd: 25 iFPM
TRAF3 NM_003300
  FC (x + 1): 0.1622
  L2FC (x + 1): −2.624
  L2abs (Cpd-DMSO): 8.22
  abs (Cpd-DMSO): 298 iFPM
  amp FC (x + 1): 6.17
  ave Cpd: 57 iFPM
TRAF3 NM_145725
  FC (x + 1): 0.7367
  L2FC (x + 1): −0.441
  L2abs (Cpd-DMSO): 8.08
  abs (Cpd-DMSO): 271 iFPM
  amp FC (x + 1): 1.36
  ave Cpd: 757 iFPM
TRAF3 NM_145726
  FC (x + 1): 1.0000
  L2FC (x + 1): 0.000
  L2abs (Cpd-DMSO): 0
  abs (Cpd-DMSO): 0 iFPM
  amp FC (x + 1): 1.00
  ave Cpd: 0 iFPM
TRAF3 NM_001199427
  FC (x + 1): 1.2405
  L2FC (x + 1): 0.311
  L2abs (Cpd-DMSO): 2.15
  abs (Cpd-DMSO): 4 iFPM
  amp FC (x + 1): 1.24
  ave Cpd: 22 iFPM
TRAK1 AK295848
  FC (x + 1): 1.1521
  L2FC (x + 1): 0.204
  L2abs (Cpd-DMSO): 6.64
  abs (Cpd-DMSO): 100 iFPM
  amp FC (x + 1): 1.15
  ave Cpd: 755 iFPM
TRAK1 NM_014965
  FC (x + 1): 0.0190
  L2FC (x + 1): −5.718
  L2abs (Cpd-DMSO): 5.69
  abs (Cpd-DMSO): 52 iFPM
  amp FC (x + 1): 52.63
  ave Cpd: 0 iFPM
TRAK1 NM_001042646
  FC (x + 1): 0.6949
  L2FC (x + 1): −0.525
  L2abs (Cpd-DMSO): 7.09
  abs (Cpd-DMSO): 136 iFPM
  amp FC (x + 1): 1.44
  ave Cpd: 309 iFPM
TRAK1 NM_001265608
  FC (x + 1): 0.8894
  L2FC (x + 1): −0.169
  L2abs (Cpd-DMSO): 6.46
  abs (Cpd-DMSO): 88 iFPM
  amp FC (x + 1): 1.12
  ave Cpd: 705 iFPM
TRAK1 NM_001265610
  FC (x + 1): 0.6862
  L2FC (x + 1): −0.543
  L2abs (Cpd-DMSO): 3.13
  abs (Cpd-DMSO): 9 iFPM
  amp FC (x + 1): 1.46
  ave Cpd: 18 iFPM
TRAPPC12 AK094181
  FC (x + 1): 1.2209
  L2FC (x + 1): 0.288
  L2abs (Cpd-DMSO): 2.20
  abs (Cpd-DMSO): 5 iFPM
  amp FC (x + 1): 1.22
  ave Cpd: 24 iFPM
TRAPPC12 AK098327
  FC (x + 1): 0.0066
  L2FC (x + 1): −7.244
  L2abs (Cpd-DMSO): 7.23
  abs (Cpd-DMSO): 151 iFPM
  amp FC (x + 1): 151.58
  ave Cpd: 0 iFPM
TRAPPC12 NM_016030
  FC (x + 1): 1.2575
  L2FC (x + 1): 0.331
  L2abs (Cpd-DMSO): 7.32
  abs (Cpd-DMSO): 160 iFPM
  amp FC (x + 1): 1.26
  ave Cpd: 781 iFPM
TRIM2 BC025417
  FC (x + 1): 0.7534
  L2FC (x + 1): −0.408
  L2abs (Cpd-DMSO): 0.61
  abs (Cpd-DMSO): 2 iFPM
  amp FC (x + 1): 1.33
  ave Cpd: 4 iFPM
TRIM2 NM_015271
  FC (x + 1): 1.1211
  L2FC (x + 1): 0.165
  L2abs (Cpd-DMSO): 7.65
  abs (Cpd-DMSO): 201 iFPM
  amp FC (x + 1): 1.12
  ave Cpd: 1858 iFPM
TRIM2 NM_001130067
  FC (x + 1): 0.0184
  L2FC (x + 1): −5.763
  L2abs (Cpd-DMSO): 5.74
  abs (Cpd-DMSO): 53 iFPM
  amp FC (x + 1): 54.29
  ave Cpd: 0 iFPM
TRIM65 NM_173547
  FC (x + 1): 1.6613
  L2FC (x + 1): 0.732
  L2abs (Cpd-DMSO): 7.49
  abs (Cpd-DMSO): 179 iFPM
  amp FC (x + 1): 1.66
  ave Cpd: 449 iFPM
TRIM65 NM_001256124
  FC (x + 1): 0.0055
  L2FC (x + 1): −7.514
  L2abs (Cpd-DMSO): 7.51
  abs (Cpd-DMSO): 182 iFPM
  amp FC (x + 1): 182.75
  ave Cpd: 0 iFPM
TSPAN2 GU971730
  FC (x + 1): 0.3567
  L2FC (x + 1): −1.487
  L2abs (Cpd-DMSO): 4.19
  abs (Cpd-DMSO): 18 iFPM
  amp FC (x + 1): 2.80
  ave Cpd: 9 iFPM
TSPAN2 NM_005725
  FC (x + 1): 0.3229
  L2FC (x + 1): −1.631
  L2abs (Cpd-DMSO): 8.17
  abs (Cpd-DMSO): 288 iFPM
  amp FC (x + 1): 3.10
  ave Cpd: 136 iFPM
U2SURP AK057679
  FC (x + 1): 1.1346
  L2FC (x + 1): 0.182
  L2abs (Cpd-DMSO): 4.73
  abs (Cpd-DMSO): 27 iFPM
  amp FC (x + 1): 1.13
  ave Cpd: 223 iFPM
U2SURP AK296440
  FC (x + 1): 0.9747
  L2FC (x + 1): −0.037
  L2abs (Cpd-DMSO): 2.77
  abs (Cpd-DMSO): 7 iFPM
  amp FC (x + 1): 1.03
  ave Cpd: 261 iFPM
U2SURP BC006474
  FC (x + 1): 0.9155
  L2FC (x + 1): −0.127
  L2abs (Cpd-DMSO): 6.85
  abs (Cpd-DMSO): 115 iFPM
